Assay results as given in patent US12552813B2, “Heterocyclic substituted pyrimidopyran compound and use thereof” (Medshine Discovery Inc., priority 2023, dated 2026).

Assays:
Assay type in all cases: cell-based
[1] = test system: KRAS^G12D mutant tumor cell line AsPC-1; assay: Antiproliferative effects of compounds in tumor cell line AsPC-1 (CellTiter-Glo 3D); conditions: Homo sapiens, ASPC1, Experimental Example 1, 7,000 cells per well, ULA plate, 120 h incubation
Method: The experiment studies the antiproliferative effects of compounds by detecting the effects of the compounds on in vitro cell activity of the KRAS^G12D mutant tumor cell line AsPC-1.
The cell line was AsPC-1. The tumor type was pancreatic cancer. The cell line was cultured by adherent growth using RPMI 1640+10% FBS. • Ultra Low Cluster-96-well plate (Corning-7007) • Greiner CELLSTAR 96-well plate (#655090) • Promega CellTiter-Glo 3D luminescence cell activity assay kit (Promega-G9683) • 2104-10 EnVision reader, PerkinElmer • RPMI 1640, DMEM, PBS (phosphate buffer), FBS (fetal bovine serum), Antibiotic-antimycotic, L-glutamine, and DMSO (dimethyl sulfoxide)
The tumor cell line was incubated in an incubator at 37° C., 5% CO2 under the culture conditions shown by the culture method. Regular passage was conducted, and the cells in the logarithmic growth phase were taken for seeding.
The cell line was AsPC-1, with a density of 7,000 cells (per well).
A cell suspension is added at a density of 135 μL per well to a ULA culture plate, and the same volume of cell-free medium is added to a blank control plate.
The ULA culture plate was centrifuged at room temperature for 10 min at 1,000 rpm immediately after seeding. Caution: Always handle follow-up actions with care after centrifuging to avoid unnecessary shaking. […]
The luminous signals were detected on a 2104 EnVision reader. […]

[2] = test system: KRAS^G12D mutant AsPC-1 cells; assay: AsPC-1 cell proliferation assay (3D-CTG method); conditions: Homo sapiens, ASPC1, 168 h, Experimental Example 2, 2,000 cells per well, 7 days incubation
Method: 1) ASPC-1 cells were seeded in a transparent 96-well cell culture plate, at a density of 195 μL of cell suspension per well containing 2,000 cells.
2) The compound to be tested was diluted with 100% DMSO to 10 mM as the 1st concentration and then diluted 5 times by a pipette to the 8th concentration, i.e. from 10 mM to 0.13 M. 2 μL of the gradient-diluted compound was added to 48 μL of cell medium for secondary dilution. After mixed, 5 μL of the secondary-diluted compound was added to the corresponding wells of the cell plate containing 195 μL of cells. The cell plate was put into a carbon dioxide incubator and incubated for 7 days.
3) After incubation, 100 μL of cell supernatant was discarded and 3D-CTG was added at a density of 60 μL per well. The cells were shaken and incubated at room temperature and 200 rpm for 20 min, and incubated in an incubator at room temperature for 1 h.
4) 100 μL of supernatant was pipetted from the well plate and transferred to a 96-well black plate with a clear bottom, and the luminescence was read in the BMG.
The original data was converted into the inhibition rate using equation Inhibition %=(Ave_H−Sample)/(Ave_H−Ave_L), and the IC50 value was obtained by curve fitting through four parameters (log(inhibitor) vs. response—Variable slope mode in GraphPad Prism). • H well: Reading of DM well • L well: Reading of Medium 5.

[3] = test system: KRAS^G12V mutant H727 cells; assay: H727 cell proliferation assay (3D-CTG method); conditions: Homo sapiens, NCI-H727, 168 h, 2,000 cells per well, 7 days incubation
Method: H727 cells from ATCC; RPMI-1640 medium from ATCC; fetal bovine serum from Ausgenex; CellTiter-Glo® 3D assay kit (3D-CTG) from Promega; and CellCarrier-96 Spheroid ULA/CS from PE.
5) The aforementioned cells were seeded in a transparent 96-well cell culture plate, at a density of 195 μL of cell suspension per well containing 2,000 cells.
6) The compound to be tested was diluted with 100% DMSO to 10 mM as the 1st concentration and then diluted 5 times by a pipette to the 8th concentration, i.e. from 10 mM to 0.13 μM. 2 μL of the gradient-diluted compound was added to 48 μL of cell medium for secondary dilution. After mixed, 5 μL of the secondary-diluted compound was added to the corresponding wells of the cell plate containing 195 μL of cells. […]
7) After incubation, 100 μL of cell supernatant was discarded and 3D-CTG was added at a density of 60 μL per well. […] 8) 100 μL of supernatant was pipetted from the well plate and transferred to a 96-well black plate with a clear bottom, and the luminescence was read in the BMG.
The original data was converted into the inhibition rate using equation Inhibition %=(Ave_H−Sample)/(Ave_H−Ave_L), and the IC50 value was obtained by curve fitting through four parameters (log(inhibitor) vs. response—Variable slope mode in GraphPad Prism). • H well: Reading of DMSO well • L well: Reading of Medium 5. […]

[4] = test system: SW620 (KRAS G12V mutant) cell line; assay: SW620 cell in vitro proliferation assay; conditions: Homo sapiens, SW-620, 240 h, 1,000 cells per well, 10 days incubation, 3D CellTiter-Glo
Method: RPMI1640 medium, penicillin/streptomycin antibiotics from Gibco, and fetal bovine serum from Hyclone. 3D CellTiter-Glo (cell viability chemiluminescent assay) reagent from Promega. SW620 (KRAS G12V mutant) cell line from ATCC, Envision Multilabel analyzer (PerkinElmer).
The cells were seeded in a 96-well, ultra-low adsorption U-plate, at a density of 80 μL of cell suspension per well containing 1,000 cells. The cell plate was incubated overnight in a carbon dioxide incubator.
The compound to be tested was diluted using a multi-channel pipette by 5 times for 8 concentrations, that was, from 2 mM to 25.6 nM, and double replicates were set up. 78 μL of medium was added to an intermediate plate. Then the gradient-diluted compound was transferred to the intermediate plate at a density of 2 μL per well according to the corresponding position, mixed and transferred at a density of 20 μL per well to a cell plate. […] Another cell plate was prepared, and the signal value read on the day of addition was taken as the maximum value (the Max value in the equation below) to be used in data analysis.
A cell viability chemiluminescent assay reagent was added to the cell plate at a density of 100 μL per well and incubated at room temperature for 30 min to stabilize luminous signals. The readings are taken using a multilabel analyzer. […]

- IC50 [1]: 6.1 nM
- IC50 [2]: 11.8 nM
- IC50 [3]: 45.9 nM
- IC50 [4]: 27.5 nM
SMILES: C=C1CN2CCC[C@]2(COc2nc3c(c(N4CCCn5nc(C(=O)N(C)C)cc5C4)n2)CO[C@@H](c2c(F)c(N)cc(C#CC)c2C(F)(F)F)C3)C1 (single isomer, unassigned) [Compound 5A]
